Literature values in Sander's compilation of Henry's law constants.

Assay: Henry solubility constant Hcp at 298.15 K (mol/(m3 Pa))
Conditions: cited value
[1] = reference: Burkholder et al. (2015)
[2] = reference: Burkholder et al. (2019)
[3] = reference: Sander et al. (2011)
[4] = reference: Fogg and Sangster (2003)
[5] = reference: Barcelo and Hennion (1997)

CCCCCN [1-pentanamine]
Henry solubility constant Hcp (reference: Brockbank (2013)): 0.43

Fc1c(F)c(F)c(F)c(F)c1F [hexafluorobenzene]
Henry solubility constant Hcp (reference: Brockbank (2013)): 0.0003

CCC(C)Br (stereo unspecified) [2-bromobutane]
Henry solubility constant Hcp (reference: Brockbank (2013)): 0.00088

CCSCC [diethyl sulfide]
Henry solubility constant Hcp [1]: 0.0035 | Henry solubility constant Hcp [2]: 0.0035

C#CCCCCCCC [1-nonyne]
Henry solubility constant Hcp (reference: Brockbank (2013)): 8.5e-05

OCl [hypochlorous acid]
Henry solubility constant Hcp [1]: 6.5 | Henry solubility constant Hcp [2]: 6.5 | Henry solubility constant Hcp (reference: Huthwelker et al. (1995)): 6.5 | Henry solubility constant Hcp (reference: Sander et al. (2006)): 6.5 | Henry solubility constant Hcp [3]: 6.5

Brc1cc(Br)c(Oc2cc(Br)c(Br)cc2Br)cc1Br [2,2',4,4',5,5'-hexabromodiphenyl ether]
Henry solubility constant Hcp (reference: Wania and Dugani (2003)): 2.9

CCCCCCC [heptane]
Henry solubility constant Hcp (reference: Brockbank (2013)): 4.4e-06

CC(=O)OC1CCCCC1 [cyclohexyl ethanoate]
Henry solubility constant Hcp (reference: Brockbank (2013)): 0.1

CCCC(C)CCC [4-methylheptane]
Henry solubility constant Hcp (reference: Brockbank (2013)): 2.7e-06

COC(=O)C(C)C [methyl 2-methylpropanoate]
Henry solubility constant Hcp (reference: Brockbank (2013)): 0.026

CS(=O)(=O)c1cc(C(F)(F)F)ccc1C(=O)c1cnoc1C1CC1 [isoxaflutole]
Henry solubility constant Hcp (reference: MacBean (2012b)): 53000

CCCCCCCC(C)=O [2-nonanone]
Henry solubility constant Hcp (reference: Brockbank (2013)): 0.032

ClC(Cl)=C(Cl)Cl [tetrachloroethene]
Henry solubility constant Hcp (reference: Brockbank (2013)): 0.00056 | Henry solubility constant Hcp [1]: 0.00055 | Henry solubility constant Hcp [2]: 0.00055 | Henry solubility constant Hcp (reference: Dilling (1977)): 0.00081 | Henry solubility constant Hcp (reference: Dilling et al. (1975)): 0.00081 | Henry solubility constant Hcp [4]: 0.0006 | Henry solubility constant Hcp (reference: Goldstein (1982)): 0.00036

O=C1C2CC=CCC2C(=O)N1SC(Cl)(Cl)Cl (stereo unspecified) [captan]
Henry solubility constant Hcp [5]: 0.016

Clc1ccc(Cl)cc1 [1,4-dichlorobenzene]
Henry solubility constant Hcp (reference: Brockbank (2013)): 0.0038 | Henry solubility constant Hcp [4]: 0.0045 | Henry solubility constant Hcp (reference: Goldstein (1982)): 0.0037

CCCCCCN [1-hexanamine]
Henry solubility constant Hcp (reference: Brockbank (2013)): 0.35

CN(C)C(=O)Nc1cccc(C(F)(F)F)c1 [fluometuron]
Henry solubility constant Hcp (reference: HSDB (2015)): 3800

Cc1ccc(C)c(C)c1C [1,2,3,4-tetramethylbenzene]
Henry solubility constant Hcp (reference: Brockbank (2013)): 0.0029

C=CCCCCCCC [1-nonene]
Henry solubility constant Hcp (reference: Brockbank (2013)): 1.1e-05

CCNc1nc(Cl)nc(NC(C)(C)C#N)n1 [cyanazine]
Henry solubility constant Hcp [5]: 33000

CCCl [chloroethane]
Henry solubility constant Hcp (reference: Brockbank (2013)): 0.00081 | Henry solubility constant Hcp [1]: 0.00083 | Henry solubility constant Hcp [2]: 0.00081 | Henry solubility constant Hcp (reference: Goldstein (1982)): 0.00068

CC(C)OC(C)C [diisopropyl ether]
Henry solubility constant Hcp (reference: Brockbank (2013)): 0.0045

CCOCC [diethyl ether]
Henry solubility constant Hcp (reference: Brockbank (2013)): 0.0099 | Henry solubility constant Hcp [1]: 0.02 | Henry solubility constant Hcp [2]: 0.0099

CN1CSC(=S)N(C)C1 [dazomet]
Henry solubility constant Hcp (reference: MacBean (2012b)): 37000

CC(C)N1C(=O)c2ccccc2NS1(=O)=O [bentazone]
Henry solubility constant Hcp [5]: 130

CCNC(=O)[C@@H](C)OC(=O)Nc1ccccc1 [carbetamide]
Henry solubility constant Hcp [5]: 1.1

O=C(F)Cl [carbonic chloride fluoride]
Henry solubility constant Hcp (reference: George et al. (1993)): 0.099

C1CCCCCCC1 [cyclooctane]
Henry solubility constant Hcp (reference: Brockbank (2013)): 7.3e-05

OCC(F)(F)C(F)(F)F [2,2,3,3,3-pentafluoro-1-propanol]
Henry solubility constant Hcp [1]: 0.14 | Henry solubility constant Hcp [2]: 0.14 | Henry solubility constant Hcp [3]: 0.14

CC(C)OC(=O)N[C@@H](C(=O)N[C@H](C)c1nc2ccc(F)cc2s1)C(C)C [benthiavalicarb isopropyl]
Henry solubility constant Hcp (reference: MacBean (2012b)): 110

CCOCCOCC [1,2-diethoxyethane]
Henry solubility constant Hcp (reference: Howard and Meylan (1997)): 0.12

COC[C@H](C)N(C(=O)CCl)c1c(C)csc1C [dimethenamid-p]
Henry solubility constant Hcp (reference: MacBean (2012b)): 2100

COC(=O)OC [carbonic acid, dimethyl ester]
Henry solubility constant Hcp (reference: Brockbank (2013)): 0.15 | Henry solubility constant Hcp [1]: 0.16 | Henry solubility constant Hcp [2]: 0.16

OCCO [1,2-ethanediol]
Henry solubility constant Hcp [1]: 6500 | Henry solubility constant Hcp [2]: 6500

C=CCN(CC=C)CC=C [N,N-di-2-propenyl-2-propen-1-amine]
Henry solubility constant Hcp (reference: Brockbank (2013)): 0.039

CCCCCCCCCc1ccccc1 [nonylbenzene]
Henry solubility constant Hcp (reference: Brockbank (2013)): 0.00014

CCCCCCCCCCO [1-decanol]
Henry solubility constant Hcp (reference: Brockbank (2013)): 0.2

COP(=S)(OC)SCN1C(=O)c2ccccc2C1=O [phosmet]
Henry solubility constant Hcp [5]: 10

[HH] [hydrogen]
Henry solubility constant Hcp (reference: Himmelblau (1960)): 7.8e-06 | Henry solubility constant Hcp (reference: Hine and Weimar (1965)): 7.7e-06 | Henry solubility constant Hcp (reference: Young (1981a)): 7.7e-06

CCCCCC#N [hexanenitrile]
Henry solubility constant Hcp (reference: Plyasunov et al. (2006)): 0.12

CCOC(=O)CC(SP(=S)(OC)OC)C(=O)OCC (stereo unspecified) [malathion]
Henry solubility constant Hcp [5]: 4.3 | Henry solubility constant Hcp (reference: Brockbank (2013)): 20

CCC(=O)CC [3-pentanone]
Henry solubility constant Hcp (reference: Brockbank (2013)): 0.089 | Henry solubility constant Hcp (reference: Cabani et al. (1981)): 0.13 | Henry solubility constant Hcp (reference: Howard (1993)): 0.11
